# In patent US20060217305A1, “Induction of tumor cell senescence by retinoid receptor agonists and antagonists” (Ordway Research Institute, Inc., priority 2005, published 2006):
# Entries after “also recorded” stand apart in the source; their conditions may differ. Where two headings read alike, the source gives them in different places.
# Tests used:
# Type in all cases: cell-based, human
# [1] = test system: retinoid-inducible genes EPLIN, UBD, IGFBP3, TGFB1 and TRIM31 in MCF-7 cells (subline MCF-7 3′SS6); test: real-time RT-PCR (QPCR) of retinoid-inducible gene expression, 2 days treatment; conditions: for Fold induction EPLIN / Fold induction IGFBP3 / Fold induction TGFBI / Fold induction TRIM31 / Fold induction UBD / fold induction at 0.1 µM: 2 days, MCF-7; for fold induction at 0.1 µM: Homo sapiens, MCF7, 48 h
# Excerpt: The following compounds were obtained from Ligand Pharmaceuticals (San Diego, Calif.). LGD1550 is a pan-RAR agonist. LGD1268 is a pan-RXR agonist. LG100815 is a pan-RAR antagonist. LG101208 is a pan-RXR antagonist. The LG100815 compound is a specific RAR antagonist that binds to RAR, but fails to activate its Retinoic Acid Responsive Element (RARE)-dependent transcription transactivation function (see Lee et al, Mol. Cell Biol. 19: 1973-1980 (1999)). Also used was all-trans retinoic acid (RA), the most commonly used RAR agonist. To determine how these compounds affect the expression of retinoid-inducible growth inhibitory genes EPLIN, UBD, IGFBP3 and TGFB1, as well as TRIM31 gene that contains a putative RARE element in its promoter, MCF-7 cells (subline MCF-7 3′SS6) were treated with individual compounds or their combinations for 2 days, and RNA was extracted by standard procedures. In the initial assays, gene expression was analyzed by semi-quantitative reverse transcription-PCR (RT-PCR), as described in Dokmanovic et al., Cancer Biology & Therapy 1:24-27 (2002). In subsequent assays, the initial results were confirmed, expanded and quantitated by real-time RT-PCR (QPCR), using Applied BioSystems 7900HT real-time PCR instrument. β-actin was used as a normalization standard.
# cDNA was prepared by reverse transcription with random primer using 4 μg total RNA. 5 μl SYBR Green PCR Master Mix (Applied Biosystems) was mixed with […] cDNA and 0.8 pmol of gene-specific primers and brought up to 10 μl with ultra pure H2O in 384-well optical plates. For amplification, reaction mixtures were heated for 2 min at 50° C. and 10 min at 95° C., followed by 40 cycles of two-step PCR consisting of 15 sec at 95° C. and 1 min at 60° C., to construct dissociation curves and verify that single PCR products were obtained. PCR products were also analyzed by gel electrophoresis to confirm that a single product of the expected size was amplified. […] The comparative CT method for relative quantitation of gene expression described by Applied Biosystems was used to determine expression levels for target genes. Experiments were carried out in triplicate for each data point. Sequence Detection Systems software version 2.1 (Applied Biosystems) and Microsoft Excel were used for data analysis.
# MCF-7 cells [2] = test: MCF-7 cell growth, cell number after 7 days; conditions: 100 nM RA, LGD1550, LGD1268, 10 μM LG100815, LG101208
# Protocol: The bars represent cell number after 7 days of culture with the addition of DMSO (control), 100 nM RA, 100 nM RAR agonist LGD1550, 100 nM RXR agonist LGD1268, 10 μM RAR antagonist LG100815, and 10 μM RXR antagonist LG101208. Experiments were done in triplicate, and the results are expressed relative to the average of the control.
# (§1) To test this, we have analyzed the effects of different compounds on the growth of MCF-7 cells, as measured by the cell number after 7 days exposure to the compounds (FIG. 2) and on the fraction of cells expressing the senescence-associated β-galactosidase activity (SA-β-gal), a marker of senescence, after 7-day treatment with the compounds (FIG. 3).
# MCF-7 cells [3] = test: senescence-associated β-galactosidase (SA-β-gal) positive cells; conditions: 7-day treatment (FIG. 3 legend: 8 days); concentrations as in FIG. 2
# Excerpt: The bars represent percentages of SA-β-gal+ cells after 8 days of treatment with the indicated compounds (in triplicate). The compounds were used at the same concentrations as in FIG. 2.
# as §1
# [4] = test system: DR5 RARE-containing promoter in MCF-7 cells; test: DR5-luciferase transient transfection assay (RARE-dependent transcription); conditions: 100 nM, 24 hrs
# Protocol: The assays were carried out in triplicate. RA is all-trans retinoic acid. LGD1550 is a pan-RAR agonist. LG100815 is a pan-RAR antagonist.
# To confirm the ability of LG100815 to antagonize RARE-dependent induction of transcription analysis of firefly luciferase expression from a RARE-containing artificial promoter DR5 (Stratagene, catalog number 240119) was performed. Cells were plated to the density of 3×10^5 in P60 24 hrs before transient transfection. DR5 reporter plasmid (4 μg) was mixed with the SV40-driven-Renilla luciferase control plasmid (0.04 μg) and transfected using Lipofectamine Plus (Life Technologies/Invitrogen, Carlsbad, Calif.) as described by the manufacturer. 3 hrs after transfection, cells were rinsed three times with PBS, trypsinized and replated in a 12-well plate to the density of 5×10^4 cells per well. Retinoid agonists and antagonists were added 48 hrs later, and the luciferase assay was performed after another 24 hrs.
structure (smiles),measurement,setting,value
Cc1cc2c(cc1C1(c3ccc(C(=O)O)cn3)CC1)C(C)(C)CCC2(C)C [LGD1268],Fold induction EPLIN,[1]; 100 nM,1.2 ± 0.2 fold
same,Fold induction IGFBP3,[1]; 100 nM,1.2 ± 0.5 fold
same,Fold induction TGFBI,[1]; 100 nM,1.9 ± 1.1 fold
same,Fold induction TRIM31,[1]; 100 nM,1.3 ± 0.4 fold
same,Fold induction UBD,[1]; 100 nM,1.0 ± 0.1 fold
same,Fold induction EPLIN,[1]; 1 μM,1.0 ± 0.1 fold
same,Fold induction IGFBP3,[1]; 1 μM,0.9 ± 1.1 fold
same,Fold induction TGFBI,[1]; 1 μM,2.2 ± 1.0 fold
same,Fold induction TRIM31,[1]; 1 μM,1.4 ± 0.7 fold
same,Fold induction UBD,[1]; 1 μM,0.8 ± 0.2 fold
same,Fold induction EPLIN,[1]; 10 μM,1.4 ± 0.2 fold
same,Fold induction IGFBP3,[1]; 10 μM,1.2 ± 0.4 fold
same,Fold induction TGFBI,[1]; 10 μM,2.4 ± 0.3 fold
same,Fold induction TRIM31,[1]; 10 μM,3.8 ± 0.7 fold
same,Fold induction UBD,[1]; 10 μM,1.0 ± 0.2 fold
same,"effect on expression of the five genes (IGFBP3, EPLIN, UBD, TGFB1, TRIM31)","[1]; summary of Table 2, MCF-7",induced only one of five genes (TGFB1)
same,effect on MCF-7 cell growth (cell number),MCF-7 cells [2],did not inhibit cell growth; also recorded: modest but reproducible increase in cell growth
same,induction of senescent phenotype (SA-β-gal+ cells),MCF-7 cells [3],did not induce the senescent phenotype
"CC1=C(/C=C/C(C)=C/C=C/C(C)=C/C(=O)O)C(C)(C)CCC1 [RA, all-trans retinoic acid]",induction of luciferase expression from DR5 RARE-containing promoter,[4],approximately 50 fold
same,ratio of the fold-induction of TGFB1 relative to TRIM31,[1]; 100 nM,0.19
same,fold induction at 0.1 µM,"[1]; 100 nM, read-out: Fold induction EPLIN",3.1 ± 0.7
same,fold induction at 0.1 µM,"[1]; 100 nM, read-out: Fold induction IGFBP3",2.5 ± 0.5
same,fold induction at 0.1 µM,"[1]; 100 nM, read-out: Fold induction TGFBI",6.5 ± 1.4
same,fold induction at 0.1 µM,"[1]; 100 nM, read-out: Fold induction TRIM31",34.4 ± 3.9
same,fold induction at 0.1 µM,"[1]; 100 nM, read-out: Fold induction UBD",8.5 ± 2.8
